The NIST ThermoML archive (doi:10.1021/je900386p)
± gives the expanded uncertainty stated by the source.

Details: Crystal; visual observation

Question: For `F[P-](F)(F)(F)(F)F.F[P-](F)(F)(F)(F)F.c1cc[n+](CCC[n+]2ccccc2)cc1` [1,1'-(1,3-propanediyl)bis-pyridinium hexafluorophosphate], which Normal melting temperature is on record?
Answer: Its Normal melting temperature is 284.6 ± 1.4 °C.
